{"source": "paper PMC7946228", "about": "“Discovery of novel candidates for anti-liposarcoma therapies by medium-scale high-throughput drug screening” (PLoS ONE, 2021)", "format_in_all_cases": "cell-based, human", "key": {"liposarcoma cell lines [1]": {"test_system": "liposarcoma cell lines", "assay": "TUNEL apoptosis assay by flow cytometry", "conditions": "growth arresting concentration, 17-72h, majority of cell lines", "protocol": "Cells were treated with drugs at the concentrations corresponding to previously established growth arresting concentrations and collected between 17 and 72h. Time of collection was individual for every drug/cell line combination; cells were collected after the beginning of complete growth inhibition (based on the growth curves data) but only when first signs of morphological change or cell death were visible (estimated microscopically approximately every 2h). After methanol fixation, cells were barcoded with different combinations of Pacific Blue/Pacific Orange dyes (Thermo Fisher Scientific) for different drug treatments. After mixing, cells were incubated in the TUNEL reaction mix for 1h at 37°C, according to the manufacturer’s instructions (Roche, Germany), stained with Streptavidin-Cy5 conjugated Ab and digested with RNAse. Cells were counter-stained with propidium iodide and analyzed using LSR II Flow Cytometer (BD Biosciences, NJ, USA. The data were processed with FlowJo Version 7.6.5 (Tree Star, Ashland, USA). The gating strategy is presented in Fig 3A. Cy-5 positive cells (as compared to control sample) were calculated as apoptotic. Cell cycles of non-apoptotic cells were analyzed using the built in FlowJo Cell Cycle Analysis module. Three independent biological replicates were done for each cell line/drug combination with exception of FU-DDLS-1 and T1000 –for which we only had two replicates available."}, "liposarcoma cell lines [2]": {"test_system": "liposarcoma cell lines", "assay": "Drug withdrawal, reversibility of growth arrest", "conditions": "for reversibility of growth inhibition after drug removal: 120h treatment at growth arresting concentration, then 72h without drug, except T778 with MLN9708", "protocol": "The cellular proliferation rate was measured using the IncuCyte ZOOM live-cell imaging system (Essen Bioscience, Birmingham, UK) with the corresponding software application (version 2013BRev1). First the growth rate for each cell line was established to estimate the seeding numbers of cells corresponding to 15–30% of confluence at the start of the experiment and maximum 70% after 72h. The drug treatment was initiated approximately 18h after seeding. The proliferation rate was measured as cell confluence over time through the acquisition of photographs under phase contrast every third hour for the entire duration of the drug treatment. During the drug treatment, media were not changed, and cells were not split. The growth reducing drug concentration was defined as lowest drug concentration leading to significant decrease of cellular growth between 40 and 72h after start of treatment. To determine that concentration, plots were generated using IncuCyte software and differences in growth between 40 and 72h were calculated using least-square means with the ‘emmeans’ R package version 1.4.3 [25]. Growth arresting concentrations were defined as minimal drug concentration under which cell confluence between 96 and 120h increases by less than 3%. Though growth arrest occurred much earlier, these time points ensured that the growth arrest is a stable phenomenon. These growth arresting concentrations were used for drug withdrawal, apoptosis and cell cycle experiments. All the data were verified with the plots. The presented values correspond to median values from two (T449, all compounds) to five (all cell lines, triptolide) biological replicates.\nAn important prerequisite for clinical implementation of these compounds as treatment for liposarcoma is irreversibility of the induced growth inhibition. We thus assessed if the drugs were only transiently cytostatic, which is especially important in case of the compounds that seem to work mainly via cell cycle arrest (APO866, GSK2126458). Cells were treated with the compounds at growth arresting concentrations for 120h after which the compounds were removed and cell numbers were monitored for another 72h. […] To irreversibly arrest cell proliferation GSK2126458 had to be used at 10x higher concentrations (100x for GOT3) (S5 Fig). Those concentrations are above physiological ranges (see Table 2), and these effects should be accounted for assessing use of GSK2126458 in clinic."}, "[3]": {"test_system": "NRH-LS1 liposarcoma cell line", "assay": "CellTiter-Glo viability, GR50, 72h", "conditions": "Homo sapiens; NRH-LS1, 72h; read-out: Half maximum effective concentration corrected for cell growth (GR50)", "protocol": "(§1) Cell viability was measured using the CellTiter-Glo Luminescent Cell Viability Assay (Promega, Wisconsin, United States). For each experiment the same cell numbers were seeded as for the proliferation experiments. Seven drug concentrations were used, starting from 100μM with 10-fold dilutions and also a vehicle control appropriate for each drug (DMSO or ethanol). After 72h of drug or vehicle control treatment levels of ATP were measured with CellTiter-Glo. The data from six to nine biological replicates, each with three technical replicates were collected. A nonlinear regression model with different four-parameter log-logistic function was used for modelling of the drug dose-response using ‘GRmetrics’ R package version 1.8.1 [26]. The calculated GR50 metric is equivalent to the IC50 metric but takes into account the growth rate of cells. Therefore, it estimates better the effect of the compound on cell viability and allows for comparison between different cell lines with different growth rates."}, "[4]": {"test_system": "LPS141 liposarcoma cell line", "assay": "CellTiter-Glo viability, GR50, 72h", "conditions": "Homo sapiens, LPS141; LPS 141, 72h; read-out: Half maximum effective concentration corrected for cell growth (GR50)", "protocol": "as §1"}, "[5]": {"test_system": "SA-4 liposarcoma cell line", "assay": "CellTiter-Glo viability, GR50, 72h", "conditions": "Homo sapiens; SA-4, 72h; read-out: Half maximum effective concentration corrected for cell growth (GR50)", "protocol": "as §1"}, "[6]": {"test_system": "LPS853 liposarcoma cell line", "assay": "CellTiter-Glo viability, GR50, 72h", "conditions": "Homo sapiens; LPS 853, 72h; read-out: Half maximum effective concentration corrected for cell growth (GR50)", "protocol": "as §1"}, "[7]": {"test_system": "LiSa-2 liposarcoma cell line", "assay": "CellTiter-Glo viability, GR50, 72h", "conditions": "Homo sapiens; LiSa-2, 72h; read-out: Half maximum effective concentration corrected for cell growth (GR50)", "protocol": "as §1"}, "[8]": {"test_system": "T1000 liposarcoma cell line", "assay": "CellTiter-Glo viability, GR50, 72h", "conditions": "Homo sapiens; T1000, 72h; read-out: Half maximum effective concentration corrected for cell growth (GR50)", "protocol": "as §1"}, "[9]": {"test_system": "T449 liposarcoma cell line", "assay": "CellTiter-Glo viability, GR50, 72h", "conditions": "Homo sapiens; T449, 72h; read-out: Half maximum effective concentration corrected for cell growth (GR50)", "protocol": "as §1"}, "[10]": {"test_system": "T778 liposarcoma cell line", "assay": "CellTiter-Glo viability, GR50, 72h", "conditions": "Homo sapiens; T778, 72h; read-out: Half maximum effective concentration corrected for cell growth (GR50)", "protocol": "as §1"}, "[11]": {"test_system": "SW872 liposarcoma cell line", "assay": "CellTiter-Glo viability, GR50, 72h", "conditions": "Homo sapiens, SW872; SW 872, 72h; read-out: Half maximum effective concentration corrected for cell growth (GR50)", "protocol": "as §1"}, "[12]": {"test_system": "GOT3 liposarcoma cell line", "assay": "CellTiter-Glo viability, GR50, 72h", "conditions": "Homo sapiens; GOT3, 72h; read-out: Half maximum effective concentration corrected for cell growth (GR50)", "protocol": "as §1"}, "[13]": {"test_system": "LPS510 liposarcoma cell line", "assay": "CellTiter-Glo viability, GR50, 72h", "conditions": "Homo sapiens; LPS 510, 72h; read-out: Half maximum effective concentration corrected for cell growth (GR50)", "protocol": "as §1"}, "[14]": {"test_system": "FU-DDLS-1 liposarcoma cell line", "assay": "CellTiter-Glo viability, GR50, 72h", "conditions": "Homo sapiens; FU-DDL S-1, 72h; read-out: Half maximum effective concentration corrected for cell growth (GR50)", "protocol": "as §1"}, "[15]": {"test_system": "LS2 liposarcoma cell line", "assay": "CellTiter-Glo viability, GR50, 72h", "conditions": "Homo sapiens; LS2, 72h; read-out: Half maximum effective concentration corrected for cell growth (GR50)", "protocol": "as §1"}}, "data": [{"smiles": "O=C(/C=C/c1cccnc1)NCCCCC1CCN(C(=O)c2ccccc2)CC1", "note": "[APO866]", "values": [{"measurement": "apoptosis (increase in % of apoptotic cells)", "setting": "liposarcoma cell lines [1]", "value": "≤ 5", "unit": "%"}, {"measurement": "reversibility of growth inhibition after drug removal", "setting": "liposarcoma cell lines [2]", "value": "irreversibly inhibited growth of all tested cell lines"}, {"measurement": "IC50", "setting": "[3]", "value": 1, "unit": "nM"}, {"measurement": "IC50", "setting": "[4]", "value": 6, "unit": "nM"}, {"measurement": "IC50", "setting": "[5]", "value": 10, "unit": "nM"}, {"measurement": "IC50", "setting": "[6]", "value": 1, "unit": "nM"}, {"measurement": "IC50", "setting": "[7]", "value": 8, "unit": "nM"}, {"measurement": "IC50", "setting": "[8]", "value": 6, "unit": "nM"}, {"measurement": "IC50", "setting": "[9]", "value": 1, "unit": "nM"}, {"measurement": "IC50", "setting": "[10]", "value": 3, "unit": "nM"}, {"measurement": "IC50", "setting": "[11]", "value": 4, "unit": "nM"}, {"measurement": "IC50", "setting": "[12]", "value": 5, "unit": "nM"}, {"measurement": "IC50", "setting": "[13]", "value": 3, "unit": "nM"}, {"measurement": "IC50", "setting": "[14]", "value": 1, "unit": "nM"}, {"measurement": "IC50", "setting": "[15]", "value": 8, "unit": "nM"}]}, {"smiles": "Cn1cc(CNCC2CCN(c3ncc(C(=O)NO)cn3)CC2)c2ccccc21", "note": "[JNJ-26481585]", "values": [{"measurement": "apoptosis (increase in % of apoptotic cells)", "setting": "liposarcoma cell lines [1]", "value": "above 5%"}, {"measurement": "reversibility of growth inhibition after drug removal", "setting": "liposarcoma cell lines [2]", "value": "irreversibly inhibited growth of all tested cell lines"}, {"measurement": "IC50", "setting": "[3]", "value": 103, "unit": "nM"}, {"measurement": "IC50", "setting": "[4]", "value": 102, "unit": "nM"}, {"measurement": "IC50", "setting": "[5]", "value": 44, "unit": "nM"}, {"measurement": "IC50", "setting": "[6]", "value": 18, "unit": "nM"}, {"measurement": "IC50", "setting": "[7]", "value": 21, "unit": "nM"}, {"measurement": "IC50", "setting": "[8]", "value": 10, "unit": "nM"}, {"measurement": "IC50", "setting": "[9]", "value": 25, "unit": "nM"}, {"measurement": "IC50", "setting": "[10]", "value": 25, "unit": "nM"}, {"measurement": "IC50", "setting": "[11]", "value": 70, "unit": "nM"}, {"measurement": "IC50", "setting": "[12]", "value": 22, "unit": "nM"}, {"measurement": "IC50", "setting": "[13]", "value": 33, "unit": "nM"}, {"measurement": "IC50", "setting": "[14]", "value": 12, "unit": "nM"}, {"measurement": "IC50", "setting": "[15]", "value": 94, "unit": "nM"}]}, {"smiles": "CC(C)[C@]12O[C@H]1[C@@H]1O[C@]13[C@]1(O[C@H]1C[C@H]1C4=C(CC[C@@]13C)C(=O)OC4)[C@@H]2O", "note": "[Triptolide]", "values": [{"measurement": "apoptosis (increase in % of apoptotic cells)", "setting": "liposarcoma cell lines [1]", "value": "above 15%"}, {"measurement": "reversibility of growth inhibition after drug removal", "setting": "liposarcoma cell lines [2]", "value": "irreversibly inhibited growth of all tested cell lines"}, {"measurement": "IC50", "setting": "[3]", "value": 7, "unit": "nM"}, {"measurement": "IC50", "setting": "[4]", "value": 12, "unit": "nM"}, {"measurement": "IC50", "setting": "[5]", "value": 13, "unit": "nM"}, {"measurement": "IC50", "setting": "[6]", "value": 5, "unit": "nM"}, {"measurement": "IC50", "setting": "[7]", "value": 9, "unit": "nM"}, {"measurement": "IC50", "setting": "[8]", "value": 8, "unit": "nM"}, {"measurement": "IC50", "setting": "[9]", "value": 8, "unit": "nM"}, {"measurement": "IC50", "setting": "[10]", "value": 8, "unit": "nM"}, {"measurement": "IC50", "setting": "[11]", "value": 2, "unit": "nM"}, {"measurement": "IC50", "setting": "[12]", "value": 7, "unit": "nM"}, {"measurement": "IC50", "setting": "[13]", "value": 5, "unit": "nM"}, {"measurement": "IC50", "setting": "[14]", "value": 8, "unit": "nM"}, {"measurement": "IC50", "setting": "[15]", "value": 6, "unit": "nM"}]}, {"smiles": "COCCn1c2c([n+](Cc3cnccn3)c1C)C(=O)c1ccccc1C2=O", "note": "[YM155]", "values": [{"measurement": "apoptosis (increase in % of apoptotic cells)", "setting": "liposarcoma cell lines [1]", "value": "above 5%"}, {"measurement": "reversibility of growth inhibition after drug removal", "setting": "liposarcoma cell lines [2]", "value": "Some cell lines such as LPS141, T778 and SA-4 resumed growth"}, {"measurement": "concentration needed for irreversible growth arrest relative to growth arresting concentration", "setting": "liposarcoma cell lines [2]; cell lines that resumed growth, 100x for GOT3 with GSK2126458", "value": 10, "unit": "x higher"}, {"measurement": "IC50", "setting": "[3]", "value": 69, "unit": "nM"}, {"measurement": "IC50", "setting": "[4]", "value": 11, "unit": "nM"}, {"measurement": "IC50", "setting": "[5]", "value": 30, "unit": "nM"}, {"measurement": "IC50", "setting": "[6]", "value": 4, "unit": "nM"}, {"measurement": "IC50", "setting": "[7]", "value": 234, "unit": "nM"}, {"measurement": "IC50", "setting": "[8]", "value": 17, "unit": "nM"}, {"measurement": "IC50", "setting": "[9]", "value": 712, "unit": "nM"}, {"measurement": "IC50", "setting": "[10]", "value": 96, "unit": "nM"}, {"measurement": "IC50", "setting": "[11]", "value": 2, "unit": "nM"}, {"measurement": "IC50", "setting": "[12]", "value": 187, "unit": "nM"}, {"measurement": "IC50", "setting": "[13]", "value": 93, "unit": "nM"}, {"measurement": "IC50", "setting": "[14]", "value": 49, "unit": "nM"}, {"measurement": "IC50", "setting": "[15]", "value": 358, "unit": "nM"}]}]}
